Source: US12637719B2, “Panel of ER regulated genes for use in monitoring endocrine therapy in breast cancer” (Sanofi, priority 2020, dated 2026)
“Also recorded” adds a separate entry of the source.

Columns and labels:
[1] = test system: ERα target genes CXCL12 and BCAS1; assay: RT-qPCR of ERα target genes CXCL12 and Bcas1 in HCC1428-LTED cells; assay type: cell-based; details: for expression of CXCL12 by RT-qPCR: FIG. 1C; for expression of Bcas1 by RT-qPCR: FIG. 1D
Description: RNA was extracted using the RNeasy kit (Qiagen) per the manufacturers instruction, quantified by NanoDrop 8000 (ThermoScientific) and reverse-transcribed with cDNA archive kit (Applied Biosystems). Taqman gene expression assays (Applied Biosystems) were used to quantify PGR (Hs00172183_m1), Bcas 1 (Hs00952822_m1), CXCL12 (Hs03676656_mH), BLNK1(Hs00929914_m1), IL20 (Hs00218888_m1) and the house-keeping genes PGK (Hs00391480_m1) and GAPDH (Hs99999905 ml) The relative quantities were determined using ΔΔ threshold cycle (ΔΔCt), according to the manufacturer's instructions (Applied Biosystems).
(§1) To evaluate the ER modulation by amcenestrant and other SERDs, we treated HCC1428-LTED (long term estrogen deprived) breast cancer cell lines with SERD compounds at either 300 nM (high) or 30 nM (low) in 24 hours. To unmask the ER-intrinsic activity, we then evaluated gene expression after compound treatment in HCC1428-LTED cells, which is a cell line that is hormone-deprived. Changes in global mRNA expression were assessed 24 hours post treatment.
Findings were confirmed by measuring the expression of two well-validated ER target genes, CXCL12 and BCAS1, by RT-qPCR. Gene expression analysis provided further confirmation of the differential response of these molecules on well-validated ERα target genes (Elife. 2016; 5, Endocr Relat Cancer. 2015; 22(5):713-24).

[2] = test system: HCC1428-LTED cells; assay: Global mRNA expression profile similarity between SERDs (1022 differentially expressed genes, Pearson correlation); assay type: cell-based; details: 24 hours post treatment, 1022 transcripts, FIG. 1A, FIG. 3
Description: An RNA-seq library of 96 SERD RNA samples was prepared using a kit from NuGen Ovation® Universal RNA-Seq System Method (Illumina® Platforms) conforming to the manufacturer's protocol. The 50 bp rapid single-read flow cell was used to sequence the library on the Illumina HiSeq 2500 in the rapid mode. […] TPM was calculated as calculated measured as an expression unit and then quantile-normalized and log 2-transformed. […] ER-regulated genes were identified using two comparisons. First, genes were identified that were modulated by one or more SERM or SERD compounds in Table 1 and modulated in the opposite direction by estradiol ([log 2 FC]>2 and FDR<0.05 vs. DMSO control). To identify genes that are differentially expressed between SERD compound treatment and dimethyl sulfoxide (DMSO; control) treatment groups, a two-factor (treatment and dose) analysis of variance (ANOVA) model was used at respective dose and time points. The treatment factor was fixed, with seven levels: six SERD compounds and the DMSO control. The dose factor was also fixed, with two levels: low and high. All samples were treated at 24h. Post hoc contrast analyses were performed at each dose and time level, between each SERD compound treatment and the DMSO control. […] This analysis was performed using Array Studio (Qiagen). […] Expression profile similarity between compounds was assessed by Pearson correlation on the differentially expressed genes.
as §1

[3] = test system: ERα transcriptional activity in HCC1428-LTED cells; assay: ER activity score (GSVA on 87-gene ER signature, RNA-seq) in HCC1428-LTED cells; assay type: cell-based; details: for ER activity score / ERα transcriptional activity (GSVA on ER signature): 300 nM (high) or 30 nM (low), 24 hours, absence of exogenous estrogen, FIG. 1B
Description: The term “ER activity score,” as used herein, refers to a score obtained by using a computational method such as GSVA (Hanzelmann et al., GSVA: gene set variation analysis for microarray and RNA-seq data, in BMC Bioinformatics, 2013; 14:7, incorporated herein by reference in its entirety for its description of calculating scores using the GSVA method) on a gene expression data set obtained from a biological sample. An E2-induced score and an E2-suppressed score are calculated individually. […] The ER activity score is computed as follows: ER Activity Score=ER-induced score−E2-suppressed score.
An RNA-seq library of 96 SERD RNA samples was prepared using a kit from NuGen Ovation® Universal RNA-Seq System Method (Illumina® Platforms) conforming to the manufacturer's protocol. The 50 bp rapid single-read flow cell was used to sequence the library on the Illumina HiSeq 2500 in the rapid mode. […] TPM was calculated as calculated measured as an expression unit and then quantile-normalized and log 2-transformed. […] ER-regulated genes were identified using two comparisons. First, genes were identified that were modulated by one or more SERM or SERD compounds in Table 1 and modulated in the opposite direction by estradiol ([log 2 FC]>2 and FDR<0.05 vs. DMSO control). To identify genes that are differentially expressed between SERD compound treatment and dimethyl sulfoxide (DMSO; control) treatment groups, a two-factor (treatment and dose) analysis of variance (ANOVA) model was used at respective dose and time points. The treatment factor was fixed, with seven levels: six SERD compounds and the DMSO control. The dose factor was also fixed, with two levels: low and high. All samples were treated at 24h. Post hoc contrast analyses were performed at each dose and time level, between each SERD compound treatment and the DMSO control. […] This analysis was performed using Array Studio (Qiagen). The panel of 1022 genes identified as differentially expressed in at least one compound-versus-DMSO comparison were used for hierarchical clustering of compound treatment data normalized to DMSO control at respective dose and time points. Complete-linkage clustering was performed based on Pearson correlation coefficients. Expression profile similarity between compounds was assessed by Pearson correlation on the differentially expressed genes.
as §1
(§2) To assess the relative ER modulating activity of the compounds, a panel of ER regulated genes (87 genes, Table 3) was developed by transcriptional profiling of multiple cell lines to identify genes that were modulated by estradiol and then blocked by SERM and SERD. This panel of ER regulated genes can be used to measure ER modulation by SERMs and SERDs. An ER Activity Score was then assessed using gene set variation analysis (GSVA) on the ER Signature (BMC Bioinformatics. 2013; 14:7).

[4] = test system: ERα signaling in HCI013 PDX tumor model; assay: ER activity score (GSVA, 87-gene signature) in HCI013 PDX tumor model; assay type: in vivo, human; details: 8 h after last administration; SAR439859 100 mg/kg QD, GDC0810 100 mg/kg QD; FIG. 4B
Description: FIGS. 4A-B. Evaluation of target gene modulation in ERα ligands in an endocrine therapy-resistant tumor model. […] Data represent mean and standard deviation for 3 replicates for CXCL12 gene expression. An ER Signature of 87 genes was that were modulated by estradiol and then blocked by SERM and SERD compounds was used to calculate the ER Activity Score and was assessed using gene set variation analysis (GSVA). Data represents the mean and deviation from the mean for each of the described treatments.
as §2
The ERα transcriptional activity was analyzed in the HCI013 model using the panel of genes corresponding to the ER gene signature derived from the in vitro cell line analysis as previously described.

[5] = test system: ER pathway; assay: ER activation score by GSVA (RNA-seq) in paired tumor biopsies, Phase 1/2 study; assay type: in vivo, human
[6] = test system: Ki67; assay: IHC Ki67 protein expression (percent positive tumor cells) in paired tumor biopsies, Phase 1/2 study; assay type: in vivo, human; details: screening to Cycle 2, Day 28; 400 mg PO QD; n=7; range −30% to +30%; FIG. 6C
Description: Staining was evaluated in tumor cells only. For ER and PgR expression, H-scores were calculated.

[7] = test system: ERα target genes PGR and CXCL12 in HCI013 tumors; assay: RT-qPCR of PGR and CXCL12 in HCI013 PDX tumors; assay type: in vivo, human
Description: FIG. 2. […] For FIG. 2 *P<0.05; denotes significance compared to vehicle treated group at end of study using unpaired t test. FIGS. 4A-B. Evaluation of target gene modulation in ERα ligands in an endocrine therapy-resistant tumor model. […] Data represent mean and standard deviation for 3 replicates for CXCL12 gene expression. An ER Signature of 87 genes was that were modulated by estradiol and then blocked by SERM and SERD compounds was used to calculate the ER Activity Score and was assessed using gene set variation analysis (GSVA). Data represents the mean and deviation from the mean for each of the described treatments. RNA was extracted using the RNeasy kit (Qiagen) per the manufacturers instruction, quantified by NanoDrop 8000 (ThermoScientific) and reverse-transcribed with cDNA archive kit (Applied Biosystems). Taqman gene expression assays (Applied Biosystems) were used to quantify PGR (Hs00172183_m1), Bcas 1 (Hs00952822_m1), CXCL12 (Hs03676656_mH), BLNK1(Hs00929914_m1), IL20 (Hs00218888_m1) and the house-keeping genes PGK (Hs00391480_m1) and GAPDH (Hs99999905 ml) The relative quantities were determined using ΔΔ threshold cycle (ΔΔCt), according to the manufacturer's instructions (Applied Biosystems).

SMILES | expression of CXCL12 by RT-qPCR [1] | expression of Bcas1 by RT-qPCR [1] | correlation of induced expression profile to that of fulvestrant [2] | ER activity score / ERα transcriptional activity (GSVA on ER signature) [3] | ERα transcriptional activity (ER activity score) in HCI013 model [4] | ER activation score by GSVA, median change from screening ([5]; all patients with paired biopsies, n=5, range −1.1 to +0.4, FIG. 6D) | ER activation score by GSVA, median change from screening, patients who showed clinical benefit ([5]; patients with clinical benefit, n=4, range −1.1 to 0) | ER activation score by GSVA, change from screening, patient with no clinical benefit ([5]; the one patient with no clinical benefit) | median change from screening in percentage of Ki67 positive cells [6] | modulation of ERα intrinsic activity in the absence of E2 (inverse agonist activity) [3] | CXCL12 gene expression in HCI013 tumors (RT-qPCR) ([7]; 8 h after last administration, SAR439859 100 mg/kg QD compared to fulvestrant 200 mg/kg Q2W or GDC0810 100 mg/kg QD, FIG. 4A) | PGR gene expression in HCI013 tumors (RT-qPCR) ([7]; 8 hours after last administration, SAR439859 100 mg/kg compared to fulvestrant 200 mg/kg or GDC0810 100 mg/kg, FIG. 2) | ER activity score / ERα transcriptional activity (GSVA on ER signature) ([3]; listed as fulvestrant)
CC/C(=C(/c1ccc(/C=C/C(=O)O)cc1)c1ccc2[nH]ncc2c1)c1ccc(F)cc1Cl [GDC-0810] | failed to elicit any significant change | failed to elicit any significant change | only weakly correlated | only partially reduced; also recorded: only partially inhibited | suppressive activity |  |  |  |  |  |  |  | 
C[C@@H]1Cc2c([nH]c3ccccc23)[C@@H](c2c(F)cc(/C=C/C(=O)O)cc2F)N1CC(C)(C)F [AZD9496] | failed to elicit any significant change | failed to elicit any significant change | only weakly correlated | only partially reduced; also recorded: only partially inhibited |  |  |  |  |  |  |  |  | 
O=C(O)c1ccc2c(c1)CCCC(c1ccc(Cl)cc1Cl)=C2c1ccc(O[C@H]2CCN(CCCF)C2)cc1 [SAR439859, 6-(2,4-dichlorophenyl)-5-[4-[(3S)-1-(3-fluoropropyl)pyrrolidin-3-yl]oxyphenyl]-8,9-dihydro-7H-benzo[7]annulene-2-carboxylic acid] | inhibited expression | induced expression | closely correlated | strongly reduced; also recorded: deep inhibition | more marked ERα suppression | −0.4 | −0.6 | +0.4 | −8% | profound modulation | stronger inhibition | stronger inhibition | 
C[C@]12CC[C@@H]3c4ccc(O)cc4C[C@@H](CCCCCCCCC[S+]([O-])CCCC(F)(F)C(F)(F)F)[C@H]3[C@@H]1CC[C@@H]2O (stereo partly drawn) [Fulvestrant] |  |  |  | deep inhibition |  |  |  |  |  | profound modulation |  |  | strongly reduced
